Results: patent US20120164104A1, “Composition and Methods of Treating Viral Infections and Viral Induced Tumors” (Chimerix, Inc., priority 2009, published 2012)
Entries after “also recorded” stand apart in the source; their conditions may differ. Like-named read-outs stand apart in the source and are kept apart here.

How the values were obtained:
Hep G2 = test: Cell proliferation assay (MTS or SRB), Hep G2; format: cell-based; conditions: Homo sapiens, HepG2, 72 h; Hep G2, Liver, 3 days; read-out: IC50 (cell growth inhibition)
Experimental: (§1) In vitro cell proliferation assays were performed using a 96-well plate based MTSassay (CellTiter 96° AqueousOne Solution Cell Proliferation Assay, Promega) or SRB (Sulforhodamine-B) assay (1-3). Briefly, cells were plated in 100 μl medium on day 0 in 96-well microtiter plates (Falcon #3072). On day 1, 10 μl of serial dilutions of each compound (Nine 1:2 dilutions with a starting concentration of 100 μM; in some cases, a starting concentration of 400 μM (CMX001 or Cidofovir) or 1 μM (some standard agents)) were added in triplicates to the plates. For standard agents using DMSO as solvent, serial dilutions of DMSO with a starting concentration of 0.5% were also included as a vehicle control.
(§2) After incubation for 3 days at 37° C. in a humidified incubator, viable cells were measured either by MTS or SRB assay. For MTS assay, 20 μl of a 20:1 mixture of (3-(4,5-dimethylthiazol-2-yl)-5-(3-carboxymethoxyphenyl)-2-(4-sulfophenyl)-2H-tetrazolium, inner salt (MTS, 2 mg/ml) and an electron coupling reagent, phenazine methosulfate (PMS, 0.92 mg/ml in DPBS), was added to each well and incubated for 3 hours at 37° C. Absorbance was measured using a BioTek Synergy™ HT Multiple Detection microplate reader at 490 nm. For SRB assay, cells were fixed in situ with 50 μL of cold trichloroacetic acid (TCA, final concentration at 10% w/v) for 60 minutes. Cells were then washed 5 times with H2O and air-dried.
(§3) Next, cells were stained with 20 μL of 0.2% SRB in 1% acetic acid and incubated at room temperature for 30 minutes and unbound SRB was removed by washing 5 times with 1% acetic acid and air-dried. Finally, bound SRB stain was solubilized in 50 μL of 50 μM Tris buffer before taking an optical density measurement at 570 nm using the BioTek microplate reader. The growth inhibition data were expressed as the percentage of cell survival calculated from the background corrected absorbance. The surviving fraction of cells was determined by dividing the mean absorbance values of the test agent-treated samples by the mean absorbance values of untreated control. […]

Caki-1 = test: Cell proliferation assay (MTS or SRB), Caki-1; format: cell-based; conditions: Homo sapiens, 72 h; Caki-1, Kidney, 3 days; read-out: IC50 (cell growth inhibition)
Experimental: as §1, §2, §3

A549 = test: Cell proliferation assay (MTS or SRB), A549; format: cell-based; conditions: Homo sapiens, 72 h; A549, Lung, 3 days; read-out: IC50 (cell growth inhibition)
Experimental: as §1, §2, §3

PC-3 = test: Cell proliferation assay (MTS or SRB), PC-3; format: cell-based; conditions: Homo sapiens, 72 h; PC-3, Prostate, 3 days; read-out: IC50 (cell growth inhibition)
Experimental: as §1, §2, §3

BKV(Dunlop) = test: Extracellular BKV load in supernatants of BKV-infected RPTECs (qPCR); format: cell-based
Experimental: For FIG. 1(a), RPTEC supernatants were harvested 72 h p.i. i.e. 70 h post start of treatment with indicated CMX001 concentrations. BKV load was measured by […] and input virus subtracted. DNA load in untreated cells (1.05E+09 Geq/ml) was set as 100%.
FIG. 5 illustrates the influence of CMX001 0.31 μM on BKV extracellular BKV load. […] Supernatants from CMX001-treated and untreated BKV-infected RPTECs were harvested at indicated timepoints after infection and BKV load measured by qPCR. Data are presented as BKV load in Geq/ml.
For FIG. […] Supernatants were harvested 72 h p.i. and extracellular BKV load measured by qPCR. Data are presented in percent of untreated cells set at 100%.
Primary human renal proximal tubule epithelial cells (RPTECs), BKV(Dunlop) and all methods as previously described by Bernhoff et al (See Bernhoff et al., Cidofovir inhibits polyomavirus BK replication in human renal tubular cells downstream of viral early gene expression, Am J Transplant 8, 1413-1422 (2008).) Only one exception, quantitative PCR (qPCR) to quantify intracellular or extracellular BKV DNA load was performed with a different primer/probe set also targeting the LTag gene (See Hirsch, et al., J. Prospective study of polyomavirus type BK replication and nephropathy in renal-transplant recipients, N Engl J. Med., 347, 488-496 (2002)). Before each experiment, CMX001 was freshly dissolved to 1 mg/ml in methanol/water/ammonium hydroxide (50/50/2). It was further diluted in RPTEC growth medium.
To investigate the effect of CMX001 on BKV progeny, increasing concentrations of CMX001 were added 2 h p.i. and supernatants harvested at 72 h p.i. It was observed that CMX001 reduced the extracellular BKV load in a concentration dependent manner (See FIG. 1 a). […] With CMX001 0.31 uM an approximately 60% decrease in BKV agnoprotein expressing cells was seen. The number of cells expressing LTag was less reduced but the signal intensity was lower than in untreated cells. […] The conclusion is that CMX001 reduced the expression of early and late BKV proteins and the production of extracellular progeny but also seemed to affect the proliferation rate of RPTECs at higher concentrations.

SK-OV-3 = test: Cell proliferation assay (MTS or SRB), SK-OV-3; format: cell-based, human; conditions: Homo sapiens, 72 h; SK-OV-3, Ovarian, 3 days; read-out: IC50 (cell growth inhibition)
Experimental: as §1, §2, §3

Het-1A = test: Cell proliferation assay (MTS or SRB), Het-1A; format: cell-based; conditions: Homo sapiens, 72 h, Esophagus (Normal), SV40 large T immortalized, 3 days, read-out: IC50 (cell growth inhibition)
Experimental: as §1
After incubation for 3 days at 37° C. in a humidified incubator, viable cells were measured either by MTS or SRB assay. […]
as §3, with “absorbance.” for “absorbance. The surviving fraction of cells was determined by dividing the mean absorbance values of the test agent-treated samples by the mean absorbance values of untreated control.”

SW 780 = test: Cell proliferation assay (MTS or SRB), SW 780; format: cell-based; conditions: Homo sapiens, SW780, 72 h; SW 780, Bladder, 3 days; read-out: IC50 (cell growth inhibition)
Experimental: as §1, §2, §3

Compound	IC50 (Hep G2) [µM]	IC50 (Caki-1) [µM]	IC50 (A549) [µM]	IC50 (PC-3) [µM]	IC90 (BKV(Dunlop); Betapolyomavirus hominis, Epithelial cell, primary human renal proximal tubule epithelial cells (conclusion), read-out: IC90 against BK virus replication) [µM]	extracellular BKV load (timecourse) (BKV(Dunlop); CMX001 0.31 μM, 48 h p.i.)	BKV load in supernatants from treated cells (BKV(Dunlop); CMX001 0.31 μM, 72 h p.i.)	BKV load in supernatants lower than in untreated cells (timecourse) (BKV(Dunlop); CMX001 0.31 μM, 72 h p.i.) [%]	IC90 (BKV(Dunlop); RPTEC, RPTECs, added 2 h p.i., harvested 72 h p.i., viral input subtracted, read-out: inhibitory concentration IC90 (extracellular BKV load)) [µM]	effect of pre-treatment on BKV load 72 h p.i. (BKV(Dunlop); RPTECs treated for 4 hours, ending 20 hours before infection)	reduction of viral load by pre-treatment (BKV(Dunlop); RPTECs treated for 23 hours until one hour before infection, 72 h p.i.)	IC50 (SK-OV-3) [µM]	IC50 (Het-1A) [µM]	IC50 (SW 780) [µM]
CCCCCCCCCCCCCCCCOCCCOP(=O)(O)CO[C@H](CO)Cn1ccc(N)nc1=O [CMX001]	37.9	68.6	> 100	6.6	0.31	only input virus could be detected; also recorded: only input was detectable	1.13×10^8 Geq/ml	84	0.31	hardly any effect; also recorded: did not inhibit BKV replication	about 50%	95.5	20.5	10
Nc1ccn(C[C@@H](CO)OCP(=O)(O)O)c(=O)n1 [cidofovir]	> 100	> 100	> 100	> 100								> 100	> 100	> 100
